According to patent US9499612B2, “Antigen binding constructs” (Glaxo Group Limited, priority 2011, dated 2016):

How the values were obtained:
[1] = test system: VEGF165 induced proliferation of human umbilical vein endothelial cells; assay: Human Umbilical Cord Endothelial Cell (HUVEC) proliferation assay; format: cell-based
Method: The assay measures the extent of endothelial cell proliferation induced by a defined concentration of VEGF165 and the ability of VEGF antagonists to block this effect. HUVECs were seeded at 5000 cells per well in 96-well gelatine-coated plates, leaving outer wells free of cells, and incubated for several hours to permit adherence. Test molecules were assayed at equimolar concentrations (max 3.33×10^−08 M) with a 2-fold serial dilution, each in triplicate. The VEGF165 was prepared in basal medium to achieve 75 ng/ml final concentration. Medium was removed manually from the cell monolayers and 50 μl basal media was added to prevent the cells from drying out. […] Cells were incubated for 72 hrs, after which time the total number of cells was determined using Cell Titre Glo. […]
(§1) PRISM™ using a Sigmodial curve fit, variable slope cf a non-linear regression (variable slope). […] Estimates of the curve maxima and the standard error were analysed using a weighted mixed model analysis of variance, using 1/(standard error)^2, [SE]^2, as a weighting. […]
as §1

[2] = test system: human VEGF165 induced blood-retinal breakdown; assay: VEGF induced blood-retinal breakdown: rabbit retinal leakage model; format: in vivo; details: for % reduction vs vehicle: Table 4B
Method: The high (H) and low (L) doses were based upon a molar equivalent dosing to Ranibizumab ([…] ™). The low dose, (L), was one third of the high dose.
In brief, all molecules were buffer exchanged using PD-10 Desalting Columns (GE Healthcare) into 10 mM Histidine HCl, 10% α-αtrehalose dehydrate, 0.01% PolySorbate 80, pH 5.5, and concentrated to the desired concentration using VIVASPIN™ 20, molecular weight cut off 5000 Da, spin concentrations (Sartorius Stedim Biotech), both were used according to manufacturer's instructions.
Ninety-eight (98) GD79B pigmented rabbits were randomly divided into nine (9) groups of ten (10) animals and one (1) group of eight (8) animals (used for KENACORT™ control). Each group was subdivided into 2 groups corresponding to 2 experimental sets. Test items, reference or control items were administered by intravitreal injection (IVT, 50 μL) into the right eyes on Day-7. Left eyes remained untreated and served as a negative control. On Day 0, right eyes were induced for blood retinal barrier (BRB) breakdown with a single intravitreal injection of 500 ng rhVEGF165 (vascular permeability inducer). Sodium fluorescein was intravenously injected to all groups 47 h after the VEGF challenge (Day 2). Within 10 min after the injection of the tracer a retinal angiography was performed on right eye and pictures were taken. Ocular fluorescein contents in the vitreoretinal compartment were measured 1 h later using non-invasive scanning ocular fluorophotometry. A right eye/left eye fluorescein content (AUC) Rt ratio was determined for retinal permeability evaluation. At the end of the evaluation period (Day 2), animals were euthanized and right eyes of all animals were enucleated. […] Fluorescein angiograms were collected for qualitative assessment.
One hundred and forty (140) HY79B pigmented rabbits were randomly divided into eleven (11) groups of twelve (12) animals and one (1) group of eight animals, each group was sub-divided into 4 experimental sets of 3 animals, bar the KENACORT™ treated group, (4 sets of 2 animals), (see Table 15A).

[3] = dose H, VEGF induced retinal leakage

Molecule	inhibition of HUVEC proliferation ([1]; Example 8, 75 ng/ml VEGF165, 72 hrs) [%]	inhibition of VEGF driven HUVEC proliferation ([1]; Example 18) [%]	% reduction vs vehicle [2, 3] [%]	% reduction vs vehicle ([2]; low dose (L)) [%]	% reduction vs vehicle ([2]; 2 000 μg/eye) [%]	% reduction ([2]; Table 15B (ii), 2 000 ug/eye) [%]
Bevacizumab [AVASTIN ™, reference compound]	~100	~100	75	–	–	–
Ranibizumab [LUCENTIS ™, reference compound]	–	–	82	78	–	–
C[C@]12C=CC(=O)C=C1CC[C@H]1[C@@H]3C[C@@H](O)[C@](O)(C(=O)CO)[C@@]3(C)C[C@H](O)[C@@]12F [KENACORT ™, Triamcinalone, reference compound]	–	–	–	–	85	80
